Columns and labels:
[1] = extra-thermodynamic assumption (tetraphenylarsonium/tetraphenylborate); cited from earlier work
Excerpt: We calibrated the potential of the NB phase against the aqueous phase by using an extra-thermodynamic assumption (Figure 3) to calculate the free energy change in GRn transfer, as discussed later. Specifically, it was assumed that the free energies of tetraphenylarsonium and tetraphenylborate transfer across the interface are identical.[36] […] Half-wave and formal potentials are identical for electrochemically reversible transfer of tetrabutylammonium.

[2] = test system: NPCs of micropore-supported nuclear envelope (NE); test: Steady-state SECM approach-curve measurement of NPC permeability to GRn; assay type: in vitro ADME, Xenopus laevis; settings: SECM approach curve at centre of micropore-supported NE patch, 10 μm-diameter micropipet, MIB; 8.6 μM GR25 or 130 μM GR5; finite element fit, homogeneous model; fit uncertainty ±20%
Procedure: The nucleus was isolated from the stage VI oocyte of an adult female X. laevis frog (Ecocyte Bioscience, Austin, Texas) to spread the NE on a microporous Si3N4 membrane, as reported elsewhere.[24] The large nucleus (∼0.4 mm in diameter) was isolated in the isotonic 1.5% PVP solution of mock intracellular buffer (MIB) at pH 7.4. MIB contains 90 mM KCl, 10 mM NaCl, 2 mM MgCl2, 1.1 mM EGTA, 0.15 mM CaCl2, and 10 mM HEPES, where free Ca^2+ was buffered at the physiological level of ∼200 nM in oocytes.[39] The spread NE was adhered to the membrane treated with Cell-Tak (Corning, Corning, New York).
A home-built SECM instrument[40] with a potentiostat (CHI 7042E, CH Instruments, Austin, Texas) was controlled by using a custom LabVIEW program (National Instruments, Austin, Texas).[41] Tapered micropipets were obtained from borosilicate glass capillaries (o.d./i.d. = 1.0 mm/0.58 mm, 10 cm in length) using a CO2-laser capillary puller (model P-2000 Sutter Instrument, Novato, California). […]
We employed DNNS-doped micropipets to measure the similar steady-state permeability of the NPCs to GRn. […] The strong transient response to GR25 is attributed to the dissociation of GR25 from the NPC as induced by an SECM tip and was investigated quantitatively by chronoamperometry below to confirm strong NPC–GR25 interactions. […]

SMILES	formal potential of transfer across the NB/water interface [1]	steady-state permeability, kss, through the NE [2]
CCCC[N+](CCCC)(CCCC)CCCC [tetrabutylammonium]	0.29 V	–
N=C(N)NCCC[C@H](NC(=O)CNC(=O)[C@H](CCCNC(=N)N)NC(=O)CNC(=O)[C@H](CCCNC(=N)N)NC(=O)CNC(=O)[C@H](CCCNC(=N)N)NC(=O)CNC(=O)[C@H](CCCNC(=N)N)NC(=O)CNC(=O)[C@H](CCCNC(=N)N)NC(=O)CNC(=O)[C@H](CCCNC(=N)N)NC(=O)CNC(=O)[C@H](CCCNC(=N)N)NC(=O)CNC(=O)[C@H](CCCNC(=N)N)NC(=O)CNC(=O)[C@H](CCCNC(=N)N)NC(=O)CNC(=O)[C@H](CCCNC(=N)N)NC(=O)CNC(=O)[C@H](CCCNC(=N)N)NC(=O)CNC(=O)[C@H](CCCNC(=N)N)NC(=O)CNC(=O)[C@H](CCCNC(=N)N)NC(=O)CNC(=O)[C@H](CCCNC(=N)N)NC(=O)CNC(=O)[C@H](CCCNC(=N)N)NC(=O)CNC(=O)[C@H](CCCNC(=N)N)NC(=O)CNC(=O)[C@H](CCCNC(=N)N)NC(=O)CNC(=O)[C@H](CCCNC(=N)N)NC(=O)CNC(=O)[C@H](CCCNC(=N)N)NC(=O)CNC(=O)[C@H](CCCNC(=N)N)NC(=O)CNC(=O)[C@H](CCCNC(=N)N)NC(=O)CNC(=O)[C@H](CCCNC(=N)N)NC(=O)CNC(=O)[C@H](CCCNC(=N)N)NC(=O)CNC(=O)[C@H](CCCNC(=N)N)NC(=O)CN)C(=O)O [GR25]	–	7.2 × 10^–3 cm/s

— paper PMC11822746, “Nanoscale Hydrophobicity of Transport Barriers in the Nuclear Pore Complex as Compared with the Liquid/Liquid Interface by Scanning Electrochemical Microscopy” (Analytical Chemistry, 2025)
